Assay results reported in EP0059645A1, “Method and kit for identification of beta-lactamases” (NATIONAL RESEARCH DEVELOPMENT CORPORATION, priority 1981, dated 1982).
Marks after values point to notes of the source that are not given here.

How the values were obtained:
PSE-2 = PSE-2 (Pseudomonas aeruginosa, UniProt P14489); experiment: 6-well visual test with nitrocefin; conditions: 3 minutes, room temperature
PSE-1 = PSE-1 (Pseudomonas aeruginosa, UniProt Q03170); experiment: 6-well visual test with nitrocefin; conditions: 3 minutes, room temperature
OXA-1 [1] = target: T1, OXA-1 (Escherichia coli, UniProt P13661); experiment: Competitive assay with nitrocefin (RSAI); format: biochemical, E. coli 1527E; set-up: the beta-lactamase has to be extracted from the cells for the purpose of the present invention; made in house; host or cells: E. coli 1527E according to the earlier reading (crude cell extract)
K10317 = experiment: Competitive assay with nitrocefin (RSAI); format: biochemical, K.aerog. 10317
TEM-2 beta-lactamase = TEM-2 beta-lactamase (Escherichia coli, UniProt P62593, Q37K); format: biochemical, E. coli C9 RP4; conditions: from kinetics of nitrocefin cleavage
HMS-1 [2] = experiment: Competitive assay with nitrocefin (RSAI); format: biochemical, E. coli 1946
HMS-1 [3] = experiment: 6-well visual test with nitrocefin; conditions: 3 minutes, room temperature
PSE-4 = PSE-4 (Pseudomonas aeruginosa, UniProt P16897); experiment: 6-well visual test with nitrocefin; conditions: 3 minutes, room temperature
OXA-1 [4] = target: T1, OXA-1; experiment: 6-well visual test with nitrocefin; conditions: 3 minutes, room temperature
[5] = target: T2, Chromosomal, induced beta-lactamase enzyme (Pseudomonas aeruginosa, UniProt P24735); experiment: Competitive assay with nitrocefin (RSAI); format: biochemical, Ps.aerug. 1937E + ampicillin
T2 construct: Normally, therefore, the beta-lactamase has to be extracted from the cells for the purpose of the present invention; endogenous in cells; host or cells: Pseudomonas aeruginosa 1937E grown with ampicillin

[6] = well A: Cefoxitin 20:1 to nitrocefin
[7] = well E: Cefoxitin 200:1 to nitrocefin

CO[C@@]1(NC(=O)Cc2cccs2)C(=O)N2C(C(=O)O)=C(COC(N)=O)CS[C@@H]21 [Cefoxi-tin, cefoxitin]
Score in 6-well visual test (PSE-2; [6]): +
Score in 6-well visual test (PSE-2; [7]): -
Score in 6-well visual test (PSE-1; [6]): ++
Score in 6-well visual test (PSE-1; [7]): -
RSAI (OXA-1 [1]): 20
RSAI (K10317): 350*
nature of the binding to the enzyme (TEM-2 beta-lactamase): irreversible binding
RSAI (HMS-1 [2]): 60
Score in 6-well visual test (HMS-1 [3]; [6]): ++
Score in 6-well visual test (HMS-1 [3]; [7]): -
Score in 6-well visual test (PSE-4; [6]): +
Score in 6-well visual test (PSE-4; [7]): -
Score in 6-well visual test (OXA-1 [4]; [6]): ++
Score in 6-well visual test (OXA-1 [4]; [7]): -
RSAI [5]: 0.003
